In patent US20250017948A1, “CANNABINOID COMPOSITIONS FOR GASTROESOPHAGEAL DISORDERS” (THE UNITED STATES GOVERNMENT AS REPRESENTED BY THE …, priority 2021, published 2025):

Key:
Assay type in all cases: cell-based, human
HET1a = conditions: for effect on DCA-induced mitochondrial membrane depolarization: treated prior to and during DCA exposure, FIG. 1C-1D, combination at 1:5
Method: MitoProbe JC-1 Assay Kit for Flow Cytometry (cat #M34152, ThermoFisher, Massachusetts, USA) was used to measure the mitochondrial membrane potential. Depending on the experimental group, cells were pre-treated with the CBG/Phytol admixture or DMSO and incubated for 2 hours at 37° C. in a CO2 incubator. Cells were then treated with DCA with the CBG/Phytol admixture or DMSO. After treatment, cell were loaded with 2 μM of JC-1 and incubated for 15 minutes at 37° C. Cytoplasmic JC-1 monomers were detected in the green spectrum (˜529 nm) while mitochondrial J-aggregates were detected in the red spectrum (˜590 nm). Results are representative of 2 and 3 independent repeats per cell line.
These concentrations of DCA are found in esophageal aspirates of patients with GERD.
Various ratios of the combination of CBG and phytol were explored to assess DCA-induced mitochondrial membrane depolarization.

[1] = system: CP-A Barrett's esophagus cells; assay: ROS by CM-DCFDA fluorescence after low pH and bile acid cocktail (GER); conditions: FIG. 6F
Method: The cannabinoids referenced in the following examples were purchased from Cayman Chemical and brought up to a stock concentration of 100 mM in DMSO. Terpenes were purchased from Sigma Aldrich. Bile acid cocktail consisted of an equimolar mixture of glycocholate, taurocholate, glycodeoxycholate, glycochenodeoxycholate, and deoxycholate at a final concentration of 0.2 mM. This cocktail reflects the mixture of bile acids to which the distal esophagus is ordinarily exposed during gastroesophageal reflux
Combinations of cannabinoids/terpenes were tested to determine whether they protected cells in the esophagus following acute exposure to a low pH environment (pH4.5) combined with a bile acid cocktail comprised of multiple physiologically-relevant secondary bile acids, which mimics the caustic environment during gastroesophageal reflux (GER). […] The cells were either immediately analyzed for ROS via fluorescent detection of CM-DCFDA or recovered for 24 hours and analyzed for DNA damage, via γ-H2AX. […] Furthermore, the combination of CBG and β-caryophyllene was tested in the residual cells and harvested 24 h post-treatment for assessment of DNA damage to obtain the γ-H2AX fluorescence plots in FIG. 6E. […]

HET1A cells [2] = assay: Genomic instability: new copy number events on PMDA arrays; conditions: daily treatment 14 days; DCA 100 μM; CBG/Phytol 1:5; baseline Day 0 genome
Method: The impact of phytocannabinoids on acquisition of new genomic changes over time in human esophageal cells was assessed using Axiom™ Precision Medicine Diversity Arrays (PMDA; Affymetrix). HET1a cells, plated in T-150 flasks at a seeding density of 2,500 cells per cm^2, were divided into 4 experimental groups (n=2 each): (i) DMSO-treated controls, (ii) treated with 100 μM of DCA alone, (iii) treated with CBG/Phytol admixture alone, and (iv) treated with 100 μM of DCA and CBG/Phytol admixture. DCA and/or CBG/Phytol were freshly prepared daily by dissolving in DMSO and then added to the media. These cells were cultured for 14 consecutive days. […]
Based on the examples above, it was hypothesized that increased stress-induced apoptosis along with reduced DNA damage and mitochondrial disruption may be concordant to reduced genomic instability. […] DNA from cultured and Day 0 cells was extracted and analyzed using PMDA arrays (Affymetrix). Genomic instability in cultured cells was assessed by identifying new copy number events (both deletions and amplifications), using genome of “Day 0” cells as baseline. […] Compared to control cells, DCA induced a marked (>6-fold) increase in genomic instability, as assessed from the acquisition of new copy number events over a period of […]. […]

HET1A cells [3] = assay: Muse Multi-Color DNA Damage kit (ATM and H2AX activation); conditions: preliminary screen, FIG. 1B; cannabinoid:terpene 1:5, with DCA
Method: The activation of ATM and H2AX (a marker of DNA breaks) was measured using the Muse Multi-Color DNA Damage kit (MilliporeSigma, Burlington, MA, USA) according to the manufacturer's instructions. The percentage of ATM activated cells and H2AX activated cells was determined as dual activation by monitoring expression of both the ATM and γ-H2AX, using the Muse Cell Analyzer (MilliporeSigma, Burlington, MA, USA). Expression of γ-H2AX was determined by flow cytometry on an Accuri C6 flow cytometer following manufacturer protocol (MilliporeSigma, Burlington, MA, USA).
Combinations of terpenes and cannabinoids were introduced to assess the effect on DNA damage using the Muse Multicolor DNA Damage Kit (see methods for details). Based on a preliminary screen shown in FIG. 1B, it was concluded that DCA induced the highest proportion of DNA damage, along with the addition of […] (THC) containing groups, >5% vs. an untreated group.

HET1A cells [4] = assay: Cell viability via XTT assay; conditions: DCA for 24 hours, then fresh media; FIG. 4A
Method: Cells were cultured prior to exposure to the indicated test articles. After treatment, as indicated, cells were washed and resuspended in a phenol red-free RPMI or DMEM and subsequently treated with the XTT assay (ThermoFisher, Waltham, MA, USA) or the MTS assay (Promega, Madison, WI, USA) following manufacturer protocols.
In this example, the role of CBG and Phytol on hallmarks of apoptosis resistance is described. […] Cells were pretreated with or without CBG/Phytol and then treated with DCA or a vehicle control for 24 hours. On the following day, the cells were incubated with fresh media, without DCA, and with or without CBG and/or Phytol. Cell viability was determined via XTT assay.

For `CCCCCc1cc(O)c(C/C=C(\C)CCC=C(C)C)c(O)c1` [CBG, cannabigerol], the “effect on DCA-induced mitochondrial membrane depolarization” value (HET1a) was “not reproduced by either compound alone in a statistically significant manner”.
`C[C@H](CCC(=O)O)[C@H]1CC[C@H]2[C@@H]3[C@@H](O)C[C@@H]4C[C@H](O)CC[C@]4(C)[C@H]3CC[C@]12C` [UDCA, ursodeoxycholic acid] was tested, and the “mitigation of the oxidative insult of GER (CM-DCFDA fluorescence), comparison with catalase and UDCA” value [1] was “protective effect”.
In the case of `C/C(=C\CO)CCC[C@H](C)CCC[C@H](C)CCCC(C)C` [phytol], the “effect on DCA-induced mitochondrial membrane depolarization” value (HET1a) was “not reproduced by either compound alone in a statistically significant manner”.
In the case of `C[C@H](CCC(=O)O)[C@H]1CC[C@H]2[C@@H]3CC[C@@H]4C[C@H](O)CC[C@]4(C)[C@H]3C[C@H](O)[C@]12C` [DCA, deoxycholic acid], the “increase in genomic instability (new copy number events) compared to control cells” value (HET1A cells [2]) was greater than 6 fold, the “proportion of DNA damage (% ATM and H2AX positive cells) vs. an untreated group” value (HET1A cells [3]) was greater than 5% and the “dose sufficient to induce membrane polarization” value (HET1a; acute exposure to DCA, JC-1 red/green) was 100 µM. For the same molecule, the “dosing that induced severe mitochondrial membrane depolarization and cellular apoptosis” value (HET1a; human) was “above 300 μM” and the “number of cells after DCA alone” value (HET1A cells [4]) was “significant reduction in number of cells by 48 hours”.
